Like-named read-outs stand apart in the source and are kept apart here.
Molecular target: human activated kallikrein enzyme (Homo sapiens (Human), UniProt P03952)
Test: Plasma kallikrein inhibition assay with fluorogenic peptide substrate, 500 pM activated kallikrein format
Type: biochemical
Settings: read-out: Primary Dose Response Assay: Average EC50
Protocol: Example compounds were evaluated for inhibition of the human activated kallikrein enzyme in two formats of an assay employing a fluorogenic peptide substrate. In one assay format, the concentrations of reagents were as follows: 20 mM Tris pH 7.5, 1 mM EDTA, 150 mM sodium chloride, 0.1% PEG-400, 0.1% Triton X-100, […], 300 uM Pro-Phe-Arg-7-amido-4-methylcoumarin substrate. Prior to reaction initiation with substrate, enzyme and inhibitors were preincubated for 30 min at RT. After initiation with substrate, reactions were incubated for 10 min at RT and fluorescence emission at 460 nm from 380 nm excitation measured with a microplate reader. In another assay format, the concentrations of reagents were as follows: 20 mM Tris pH 7.5, 1 mM EDTA, 150 mM sodium chloride, 0.1% PEG-400, 0.1% Triton X-100, 5 pM activated kallikrein enzyme, 300 uM Pro-Phe-Arg-7-amido-4-methylcoumarin substrate. Prior to reaction initiation with substrate, enzyme and inhibitors were preincubated for 30 min at RT. After initiation with substrate, reactions were incubated for 18 h at RT and fluorescence emission at 460 nm from 380 nm excitation measured with a microplate reader.
Table II provides the results of the assay in the format with 500 pM activated kallikrein assay.
Table III provides comparative plasma kallikrein inhibition potency in the assay format with 500 pM activated kallikrein assay (described in detail in the preceding example).

[1] = 500 pM activated kallikrein, 300 uM Pro-Phe-Arg-7-amido-4-methylcoumarin substrate, 30 min preincubation, 10 min reaction at RT
[2] = comparative compounds (Table III), 500 pM activated kallikrein format

Chain of human activated kallikrein enzyme (P03952 391-638): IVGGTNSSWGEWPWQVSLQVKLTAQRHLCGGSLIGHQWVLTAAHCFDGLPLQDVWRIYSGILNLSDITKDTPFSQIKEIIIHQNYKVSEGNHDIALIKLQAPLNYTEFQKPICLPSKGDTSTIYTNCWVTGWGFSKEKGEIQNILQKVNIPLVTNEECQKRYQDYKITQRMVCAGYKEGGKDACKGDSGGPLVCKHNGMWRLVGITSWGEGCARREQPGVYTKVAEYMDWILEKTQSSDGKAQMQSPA
Chain of human activated kallikrein enzyme (P03952 20-390 partner): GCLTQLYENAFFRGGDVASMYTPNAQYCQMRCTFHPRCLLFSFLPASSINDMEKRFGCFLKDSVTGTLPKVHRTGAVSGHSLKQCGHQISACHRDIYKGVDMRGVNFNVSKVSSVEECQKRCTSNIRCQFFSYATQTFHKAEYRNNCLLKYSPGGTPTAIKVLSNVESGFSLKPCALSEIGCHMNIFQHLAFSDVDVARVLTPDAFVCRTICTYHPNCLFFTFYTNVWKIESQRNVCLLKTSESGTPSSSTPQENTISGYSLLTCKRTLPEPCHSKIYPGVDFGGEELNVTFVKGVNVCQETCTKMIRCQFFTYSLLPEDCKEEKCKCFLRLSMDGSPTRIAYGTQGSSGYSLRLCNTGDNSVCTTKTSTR

| EC50 [1] | EC50 [2] | Compound |
| --- | --- | --- |
| 100 to 2000 nM | – | O=S(=O)(NCc1c(-n2cnnn2)ccc(Cl)c1F)c1cn(Cc2cn3cc(C4CC4)ccc3n2)nn1 [Example I-30, N-(3-chloro-2-fluoro-6-(1H-tetrazol-1-yl)benzyl)-1-((6-cyclopropylimidazo[1,2-a]pyridin-2-yl)methyl)-1H-1,2,3-triazole-4-sulfonamide] |
| ≤ 1 nM | – | COc1ccc(-n2cnnn2)c(CNC(=O)c2ccn(Cc3cn4cc(C5CC5)ccc4n3)c2)c1F [Example I-54, 1-((6-cyclopropylimidazo[1,2-a]pyridin-2-yl)methyl)-N-(2-fluoro-3-methoxy-6-(1H-tetrazol-1-yl)benzyl)-1H-pyrrole-3-carboxamide] |
| 2000 to 7100 nM | – | Cc1cc2c(N)noc2c(C)c1CNC(=O)c1cnn(Cc2cn3cc(C4CC4)ccc3n2)c1 [Example I-134, N-((3-amino-5,7-dimethylbenzo[d]isoxazol-6-yl)methyl)-1-((6-cyclopropylimidazo[1,2-a]pyridin-2-yl)methyl)-1H-pyrazole-4-carboxamide] |
| – | 10 to 100 nM | O=C(NCc1ncn2ccc(Cl)c(F)c12)c1cn(Cc2cn3ccccc3n2)nn1 |
| 1 to 10 nM | – | COc1ccc(-n2cnnn2)c(CNS(=O)(=O)c2cnn(Cc3cn4cc(C5CC5)ccc4n3)c2)c1F [Example I-45, 1-((6-cyclopropylimidazo[1,2-a]pyridin-2-yl)methyl)-N-(2-fluoro-3-methoxy-6-(1H-tetrazol-1-yl)benzyl)-1H-pyrazole-4-sulfonamide] |
| 2000 to 7100 nM | – | COc1ccc([S+](C)[O-])c(CNC(=O)c2cn(Cc3cn4cc(C5CC5)ccc4n3)nn2)c1F (stereo not drawn) [Example I-58, 1-((6-cyclopropylimidazo[1,2-a]pyridin-2-yl)methyl)-N-(2-fluoro-3-methoxy-6-(methylsulfinyl)benzyl)-1H-1,2,3-triazole-4-carboxamide] |
| 100 to 2000 nM | – | COc1cccc(CNC(=O)c2cn(Cc3cn4cc(C5CC5)ccc4n3)nn2)c1F [Example I-100, 1-((6-cyclopropylimidazo[1,2-a]pyridin-2-yl)methyl)-N-(2-fluoro-3-methoxybenzyl)-1H-1,2,3-triazole-4-carboxamide] |
| ≤ 1 nM | – | Cc1cc(C(=N)N)cc(C)c1CNC(=O)c1cnn(Cc2cn3cc(C4CC4)ccc3n2)c1 [Example I-103, N-(4-carbamimidoyl-2,6-dimethylbenzyl)-1-((6-cyclopropylimidazo[1,2-a]pyridin-2-yl)methyl)-1H-pyrazole-4-carboxamide] |
| ≤ 1 nM | – | COc1ccc(-n2cnnn2)c(CNC(=O)c2cn(Cc3cn4cc(C5CC5)cc(CC5COC5)c4n3)nn2)c1F [Example I-68, 1-((6-cyclopropyl-8-(oxetan-3-ylmethyl)imidazo[1,2-a]pyridin-2-yl)methyl)-N-(2-fluoro-3-methoxy-6-(1H-tetrazol-1-yl)benzyl)-1H-1,2,3-triazole-4-carboxamide] |
| 10 to 100 nM | – | Cc1cc2[nH]cc(Cl)c2c(C)c1CNC(=O)c1cnn(Cc2cn3cc(C4CC4)ccc3n2)c1 [Example I-123, N-((3-chloro-4,6-dimethyl-1H-indol-5-yl)methyl)-1-((6-cyclopropylimidazo[1,2-a]pyridin-2-yl)methyl)-1H-pyrazole-4-carboxamide] |
| ≤ 1 nM | – | NCc1cc(C2CC2)cn2cc(Cn3cc(C(=O)NC4CCc5c4ccnc5N)nn3)nc12 (stereo not drawn) [Example I-10, N-(1-amino-6,7-dihydro-5H-cyclopenta[c]pyridin-5-yl)-1-((8-(aminomethyl)-6-cyclopropylimidazo[1,2-a]pyridin-2-yl)methyl)-1H-1,2,3-triazole-4-carboxamide] |
| ≤ 1 nM | – | COc1ccc(-n2ccnn2)c(CNC(=O)c2cn(Cc3cn4cc(C5CC5)ccc4n3)nn2)c1F [Example I-76, 1-((6-cyclopropylimidazo[1,2-a]pyridin-2-yl)methyl)-N-(2-fluoro-3-methoxy-6-(1H-1,2,3-triazol-1-yl)benzyl)-1H-1,2,3-triazole-4-carboxamide] |
| ≤ 1 nM | – | Cc1cc(C(=N)N)cc(C)c1CNC(=O)c1cn(Cc2cn3cc(C4CC4)ccc3n2)nn1 [Example I-115, N-(4-carbamimidoyl-2,6-dimethylbenzyl)-1-((6-cyclopropylimidazo[1,2-a]pyridin-2-yl)methyl)-1H-1,2,3-triazole-4-carboxamide] |
| 100 to 2000 nM | – | O=C(NCc1nccc(Cl)n1)c1cn(Cc2cn3cc(C4CC4)ccc3n2)nn1 [Example I-145, N-((4-chloropyrimidin-2-yl)methyl)-1-((6-cyclopropylimidazo[1,2-a]pyridin-2-yl)methyl)-1H-1,2,3-triazole-4-carboxamide] |
| ≤ 1 nM | – | COc1ccc(-n2cnnn2)c(CNC(=O)c2cn(Cc3cn4cc(C5CC5)ccc4n3)nn2)c1F [Example I-105, 1-((6-cyclopropylimidazo[1,2-a]pyridin-2-yl)methyl)-N-(2-fluoro-3-methoxy-6-(1H-tetrazol-1-yl)benzyl)-1H-1,2,3-triazole-4-carboxamide] |
| – | > 7100 nM | NC(=O)c1cnn(Cc2cn3cc(C4CC4)ccc3n2)c1 |
| > 7100 nM | – | O=S(=O)(NCc1ccc(Cl)cc1)c1cnn(Cc2cn3cc(C4CC4)ccc3n2)c1 [Example I-42, N-(4-chlorobenzyl)-1-((6-cyclopropylimidazo[1,2-a]pyridin-2-yl)methyl)-1H-pyrazole-4-sulfonamide] |
| 1 to 10 nM | – | COc1ccc(-n2ccnc2)c(CNC(=O)c2cn(Cc3cn4cc(C5CC5)ccc4n3)nn2)c1F [Example I-104, 1-((6-cyclopropylimidazo[1,2-a]pyridin-2-yl)methyl)-N-(2-fluoro-6-(1H-imidazol-1-yl)-3-methoxybenzyl)-1H-1,2,3-triazole-4-carboxamide] |
| 2000 to 7100 nM | – | NCc1ccc(CNS(=O)(=O)c2cnn(Cc3cn4cc(C5CC5)ccc4n3)c2)cc1 [Example I-33, N-(4-(aminomethyl)benzyl)-1-((6-cyclopropylimidazo[1,2-a]pyridin-2-yl)methyl)-1H-pyrazole-4-sulfonamide] |
| 100 to 2000 nM | – | COc1ccc(-n2cnnn2)c(CN(C)C(=O)c2cn(Cc3cn4cc(C5CC5)ccc4n3)nn2)c1F [Example I-66, 1-((6-cyclopropylimidazo[1,2-a]pyridin-2-yl)methyl)-N-(2-fluoro-3-methoxy-6-(1H-tetrazol-1-yl)benzyl)-N-methyl-1H-1,2,3-triazole-4-carboxamide] |
| 1 to 10 nM | – | N#Cc1cc(C2CC2)cn2cc(Cn3cc(C(=O)NC4CCc5c4ccnc5N)nn3)nc12 (stereo not drawn) [Example I-14, N-(1-amino-6,7-dihydro-5H-cyclopenta[c]pyridin-5-yl)-1-((8-cyano-6-cyclopropylimidazo[1,2-a]pyridin-2-yl)methyl)-1H-1,2,3-triazole-4-carboxamide] |
| > 7100 nM | – | O=C(NCc1cc(Cl)ccc1-c1nn[nH]n1)c1cnn(Cc2cn3cc(C4CC4)ccc3n2)c1 [Example I-117, N-(5-chloro-2-(2H-tetrazol-5-yl)benzyl)-1-((6-cyclopropylimidazo[1,2-a]pyridin-2-yl)methyl)-1H-pyrazole-4-carboxamide] |
| 1 to 10 nM | – | COc1ccc(F)c(CNC(=O)c2cn(Cc3cn4cc(C5CC5)cc(CN)c4n3)nn2)c1F [Example I-13, 1-((8-(aminomethyl)-6-cyclopropylimidazo[1,2-a]pyridin-2-yl)methyl)-N-(2,6-difluoro-3-methoxybenzyl)-1H-1,2,3-triazole-4-carboxamide] |
| > 7100 nM | – | O=C(NCc1ccccc1)c1cn(Cc2cn3cc(C4CC4)ccc3n2)nn1 [Example I-60, N-benzyl-1-((6-cyclopropylimidazo[1,2-a]pyridin-2-yl)methyl)-1H-1,2,3-triazole-4-carboxamide] |
| 1 to 10 nM | – | Cc1[nH]nc2c1CC[C@H]2NC(=O)c1cn(Cc2cn3cc(C4CC4)ccc3n2)nn1 [Example I-154] |
| 100 to 2000 nM | – | O=C(NCc1cc2occc2cn1)c1cn(Cc2cn3cc(C4CC4)ccc3n2)nn1 [Example I-140, 1-((6-cyclopropylimidazo[1,2-a]pyridin-2-yl)methyl)-N-(furo[3,2-c]pyridin-6-ylmethyl)-1H-1,2,3-triazole-4-carboxamide] |
| > 7100 nM | – | CC(NS(=O)(=O)c1cnn(Cc2cn3cc(C4CC4)ccc3n2)c1)c1ccc(Cl)cc1 (stereo not drawn) [Example I-37] |
| ≤ 1 nM | – | Nc1nccc2c1CCC2NC(=O)c1cn(Cc2cn3cc(C4CC4)ccc3n2)nn1 (stereo not drawn) [Example I-23, N-(1-amino-6,7-dihydro-5H-cyclopenta[c]pyridin-5-yl)-1-((6-cyclopropylimidazo[1,2-a]pyridin-2-yl)methyl)-1H-1,2,3-triazole-4-carboxamide] |
| 2000 to 7100 nM | – | Nc1nnc(CNC(=O)c2cn(Cc3cn4cc(C5CC5)ccc4n3)nn2)o1 [Example I-19, N-((5-amino-1,3,4-oxadiazol-2-yl)methyl)-1-((6-cyclopropylimidazo[1,2-a]pyridin-2-yl)methyl)-1H-1,2,3-triazole-4-carboxamide] |
| 100 to 2000 nM | – | CS(=O)(=O)c1ccccc1CNC(=O)c1cn(Cc2cn3cc(C4CC4)ccc3n2)nn1 [Example I-51, 1-((6-cyclopropylimidazo[1,2-a]pyridin-2-yl)methyl)-N-(2-(methylsulfonyl)benzyl)-1H-1,2,3-triazole-4-carboxamide] |
